System: electron transport chain complexes of isolated mitochondria
Experiment: Electron flow assay in isolated mitochondria
Assay type: biochemical, mouse
Settings: HCT-13 + Cu(II) 20 μM
Procedure: FIG. 3A: Mito Stress Test of MIAPACA2 PDAC cells treated with HCT13 (25 nM)+Cu(II) (20 μM) for 24h. FIG. 3B: electron flow assay in isolated mitochondria treated with HCT-13 (100 nM)+Cu(II) (20 μM) for 1h. FIG. 3C: viability of 143 BTK parental (wild type, WT) and ρ0 cells after 48h of the indicated HCT13 concentration+Cu(II) (20 μM) treatment, assessed with Trypan Blue Staining. FIG. 3D: 48h cell cycle histogram and plots of S-phase arrest plots in 143 BTK WT and 143 BTK ρ0 cells at 24, 48 and 72h following treatment with indicated concentrations of HCT13+Cu(II)(20 μM). (mean±SD, n=2, one-way ANOVA corrected for multiple comparisons by Bonferroni adjustment, * P<0.05; ** P<0.01; *** P<0.001). […]
Mito Stress Test and Electron Flow Assay: All oxygen consumption rate (OCR) was measured using a XF24 Analyzer (Agilent) and normalized per μg protein. […] OCR was measured before (total respiration) and after the sequential injection of 1 μM oligomycin (complex V inhibitor), 0.75 μM FCCP (uncoupler), and 1 μM of rotenone and myxothiazol (complex I and III inhibitors, respectively), as described previously (1). Mitochondrial respiration was calculated by subtracting the non-mitochondrial respiration left after rotenone and myxothiazol injection. […] OCR was measured before and after the sequential injections described in the previous paragraph. […]

SMILES: CN(C)C(=S)N/N=C/c1nccc2cc(F)ccc12 (mixture of isomers) [HCT13, (E)-2-((6-Fluoroisoquinolin-1-yl)methylene)-N,N-dimethylhydrazine-1-carbothioamide and (Z)-2-((6-Fluoroisoquinolin-1-yl)methylene)-N,N-dimethylhydrazine-1-carbothioamide]
- mitochondrial ETC complex activity: decreased activity of complexes I and II
- mitochondrial ETC complex activity (listed as HCT-13): ETC Complex 1 was most dramatically affected

From patent publication US12528774B2, “Thiosemicarbazone compounds and uses thereof” (The Regents of the University of California, priority 2019, dated 2026)
